# Measured values: ChEMBL document CHEMBL1201862, “PubChem BioAssay data set” (2004)
# Activity calls are given as the source filed them.
# Columns and labels:
# [1] = biological target: T1, Heat shock factor protein 1 (Mus musculus, UniProt P38532); experiment: decrease of HSF1-responsive luciferase luminescence – cell-based, NIH3T3, dose retest, confirmation (AID 2382); format: functional;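 also: NIH3T3 fibroblasts with HSF1-driven luciferase reporter stressed by proteasome inhibitor MG132; luminescence from HSF1-driven luciferase expression after 8 hours of MG132 stress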
# T1 sequence (P38532 whole entry): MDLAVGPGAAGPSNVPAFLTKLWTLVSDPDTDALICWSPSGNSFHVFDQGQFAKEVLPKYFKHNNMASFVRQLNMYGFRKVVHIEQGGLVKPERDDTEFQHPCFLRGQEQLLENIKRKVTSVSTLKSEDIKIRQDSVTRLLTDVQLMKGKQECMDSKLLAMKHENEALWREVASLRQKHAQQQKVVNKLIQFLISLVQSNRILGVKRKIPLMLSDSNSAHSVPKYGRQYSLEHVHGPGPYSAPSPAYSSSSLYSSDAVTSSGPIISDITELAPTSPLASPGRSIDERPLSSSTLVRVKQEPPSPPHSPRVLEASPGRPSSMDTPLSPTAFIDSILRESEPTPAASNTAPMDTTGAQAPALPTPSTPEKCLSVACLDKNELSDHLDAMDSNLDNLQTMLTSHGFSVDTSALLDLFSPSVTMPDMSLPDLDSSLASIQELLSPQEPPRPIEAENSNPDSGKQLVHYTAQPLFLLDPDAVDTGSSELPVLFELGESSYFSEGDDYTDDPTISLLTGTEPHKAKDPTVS
# [2] = viability inhibitors of stage V gametocytes – luminescence, dose response (AID 1117278); format: functional, cell-based;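 also: gametocytes exposed to compound for 24 hours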
# [3] = viability loss in human Jurkat cells – cell-based, luminescence, cytotoxicity control for P. falciparum gametocyte viability project, dose response (AID 1117277); format: functional;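 also: potency reflects loss of cellular ATP meaning fewer viable cells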
# Prothrombin = Prothrombin (Homo sapiens, UniProt P00734); experiment: Thrombin 1536 HTS Dose Response Confirmation. [Related pubchem assays: 1046 (Thrombin 1536 HTS; hits were confirmed in this assay)]; format: functional
# 14-3-3 protein gamma = biological target: T2, 14-3-3 protein gamma (Homo sapiens, UniProt P61981); experiment: modulators of 14-3-3 gamma client binding – dose response (AID 711); format: functional
# T2 sequence (P61981 whole entry): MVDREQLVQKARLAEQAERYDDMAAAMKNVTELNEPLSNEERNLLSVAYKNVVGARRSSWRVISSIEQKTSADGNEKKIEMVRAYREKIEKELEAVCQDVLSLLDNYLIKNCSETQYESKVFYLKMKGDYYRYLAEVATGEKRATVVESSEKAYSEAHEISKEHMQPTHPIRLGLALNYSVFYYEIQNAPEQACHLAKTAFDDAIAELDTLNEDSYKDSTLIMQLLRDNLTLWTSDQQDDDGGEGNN
# Cytochrome P450 2C19 = Cytochrome P450 2C19 (Homo sapiens, UniProt P33261); experiment: Cytochrome panel assay with activity outcomes. Panel member name: p450-cyp2c19 Compounds with AC50 equal or less than 10 uM are considered active; format: functional
# Sequence of Cytochrome P450 2C19 (P33261 whole entry, the tested form may be a part): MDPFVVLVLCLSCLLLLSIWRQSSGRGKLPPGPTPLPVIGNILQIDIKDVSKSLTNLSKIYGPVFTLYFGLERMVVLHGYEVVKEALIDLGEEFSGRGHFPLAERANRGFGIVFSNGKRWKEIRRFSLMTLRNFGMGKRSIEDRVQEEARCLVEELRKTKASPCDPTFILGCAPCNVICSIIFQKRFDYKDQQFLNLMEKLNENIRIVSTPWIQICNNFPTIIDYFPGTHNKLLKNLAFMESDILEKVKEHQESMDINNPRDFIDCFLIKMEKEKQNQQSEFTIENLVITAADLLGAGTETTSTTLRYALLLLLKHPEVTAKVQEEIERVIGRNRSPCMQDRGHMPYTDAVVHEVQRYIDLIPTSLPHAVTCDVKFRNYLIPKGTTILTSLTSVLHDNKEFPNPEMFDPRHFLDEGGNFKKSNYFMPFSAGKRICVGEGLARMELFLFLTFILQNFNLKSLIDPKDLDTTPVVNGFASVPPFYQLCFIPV
# [4] = biological target: T3, Oxysterols receptor LXR-beta (Homo sapiens, UniProt P55055); format: functional, cell-based;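 also: Cell-based luminescence dose-response assay of agonist activity at LXR, run as a confirmatory counterscreen to a daf-12 agonist screen; HEK293 cells with Gal4-LXR fusion and GAL4-driven luciferase reporter; agonist potency from rising luciferase signal of a Gal4-LXR reporter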
# T3 sequence (P55055 whole entry): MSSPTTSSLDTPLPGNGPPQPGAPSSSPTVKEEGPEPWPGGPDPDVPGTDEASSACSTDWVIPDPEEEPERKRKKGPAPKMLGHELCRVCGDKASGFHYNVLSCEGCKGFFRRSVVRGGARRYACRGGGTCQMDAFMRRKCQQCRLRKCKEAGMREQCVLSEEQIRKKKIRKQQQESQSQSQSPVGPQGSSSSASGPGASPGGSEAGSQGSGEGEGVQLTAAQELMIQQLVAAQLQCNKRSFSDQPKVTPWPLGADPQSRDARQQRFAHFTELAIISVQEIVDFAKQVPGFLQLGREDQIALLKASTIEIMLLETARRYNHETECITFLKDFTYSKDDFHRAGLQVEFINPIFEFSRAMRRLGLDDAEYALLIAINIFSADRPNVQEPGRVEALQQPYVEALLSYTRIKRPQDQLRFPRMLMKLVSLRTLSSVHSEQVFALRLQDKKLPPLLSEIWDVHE
# Cytochrome P450 2D6 = Cytochrome P450 2D6 (Homo sapiens, UniProt P10635);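 also: CYP2D6 member of a cytochrome P450 panel assay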
# Sequence of Cytochrome P450 2D6 (P10635 whole entry): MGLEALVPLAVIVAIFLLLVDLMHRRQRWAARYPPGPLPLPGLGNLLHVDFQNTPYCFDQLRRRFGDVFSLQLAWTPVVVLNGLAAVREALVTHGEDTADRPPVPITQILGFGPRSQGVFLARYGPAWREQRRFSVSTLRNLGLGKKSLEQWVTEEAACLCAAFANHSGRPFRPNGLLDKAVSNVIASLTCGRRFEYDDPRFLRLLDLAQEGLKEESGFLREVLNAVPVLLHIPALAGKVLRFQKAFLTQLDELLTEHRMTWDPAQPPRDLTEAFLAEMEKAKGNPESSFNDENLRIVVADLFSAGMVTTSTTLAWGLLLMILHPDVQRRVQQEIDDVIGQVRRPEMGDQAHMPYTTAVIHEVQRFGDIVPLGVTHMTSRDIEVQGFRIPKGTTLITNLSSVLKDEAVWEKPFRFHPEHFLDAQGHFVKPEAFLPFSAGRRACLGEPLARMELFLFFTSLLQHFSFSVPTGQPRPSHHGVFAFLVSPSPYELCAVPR
# Cytochrome P450 2C9 = Cytochrome P450 2C9 (Homo sapiens, UniProt P11712)
# Sequence of Cytochrome P450 2C9 (P11712 whole entry): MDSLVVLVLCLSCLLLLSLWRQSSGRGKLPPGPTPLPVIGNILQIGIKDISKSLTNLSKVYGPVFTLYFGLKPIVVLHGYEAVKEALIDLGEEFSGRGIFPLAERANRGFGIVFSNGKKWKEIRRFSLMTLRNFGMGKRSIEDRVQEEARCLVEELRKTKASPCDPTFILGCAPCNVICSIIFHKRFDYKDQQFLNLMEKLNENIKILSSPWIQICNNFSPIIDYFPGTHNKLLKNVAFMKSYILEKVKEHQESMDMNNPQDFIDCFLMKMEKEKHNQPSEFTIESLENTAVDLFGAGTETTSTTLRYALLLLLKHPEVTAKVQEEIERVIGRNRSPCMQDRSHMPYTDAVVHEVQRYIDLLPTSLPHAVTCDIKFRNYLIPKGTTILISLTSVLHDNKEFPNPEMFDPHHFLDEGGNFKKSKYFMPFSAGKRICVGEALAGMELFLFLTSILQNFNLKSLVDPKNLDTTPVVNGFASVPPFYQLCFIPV
# [5] = biological target: E3 ubiquitin-protein ligase Mdm2 (Homo sapiens, UniProt Q00987); experiment: MDM2-luc reporter signal enhancers, multi-concentration potency testing, MDM2 ubiquitin-protein ligase inhibitor program, whole-cell format, luminescence detection, 384-well microplate (AID 1394); format: functional;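 also: MDM2 E3 inhibitors raise luminescence so EC50 is for signal enhancement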
# Sequence of E3 ubiquitin-protein ligase Mdm2 (Q00987 whole entry): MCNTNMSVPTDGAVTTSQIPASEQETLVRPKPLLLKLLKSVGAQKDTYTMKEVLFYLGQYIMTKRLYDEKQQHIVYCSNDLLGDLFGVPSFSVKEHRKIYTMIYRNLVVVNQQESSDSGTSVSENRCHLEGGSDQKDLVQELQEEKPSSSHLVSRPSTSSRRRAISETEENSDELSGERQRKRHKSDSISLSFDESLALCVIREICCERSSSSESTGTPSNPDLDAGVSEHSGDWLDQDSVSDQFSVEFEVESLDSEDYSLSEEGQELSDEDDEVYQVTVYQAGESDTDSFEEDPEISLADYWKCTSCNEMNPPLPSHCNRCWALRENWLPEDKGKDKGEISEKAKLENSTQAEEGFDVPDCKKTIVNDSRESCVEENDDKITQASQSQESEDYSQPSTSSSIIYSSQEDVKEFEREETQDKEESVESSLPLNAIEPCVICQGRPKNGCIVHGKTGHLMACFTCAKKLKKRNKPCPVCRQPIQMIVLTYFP
# BJ [6] = experiment: BJ-TERT fibroblast viability loss – cell-based, RAS-independent, luminescence, dose response (AID 1933); format: functional; conditions: Homo sapiens
# BJ [7] = experiment: cells; format: functional, cell-based; conditions: Homo sapiens
# BJ [8] = experiment: BJ-TERT-LT-ST fibroblast viability loss – cell-based, RAS-independent, luminescence, dose response (AID 1935); format: functional; conditions: Homo sapiens;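 also: BJ fibroblasts immortalized with TERT plus LT and ST oncogenes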
# [9] = DRD fibroblast viability loss – cell-based, non-viral oncogenic, luminescence, dose response (AID 1934); format: functional; conditions: Homo sapiens
# [10] = biological target: Heat shock protein HSP 90-alpha (Homo sapiens, UniProt P07900); format: functional, organism-based
# INS1 = experiment: INS-1E survival protection against cytokine death – cell-based, luminescence, retest, dose response (AID 449756); format: functional; conditions: Rattus norvegicus;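 also: cell death triggered by IL-1 beta plus TNF-alpha plus IFN-gamma mixture; protective hits raise ATP signal compared with cytokine alone wells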
# [11] = blockers of HIV-1 envelope-mediated cell-cell fusion – cherry-pick, dose response (AID 652057); format: functional, cell-based
# [12] = viability loss in CEM21 cells – cell-based, CellTiter-Glo luminescence, cherry-picked, cytotoxicity control for viral fusion inhibitor project, dose response (AID 652042); format: functional;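 also: potency for signal decrease meaning cytotoxicity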
# [13] = blockers of HIV-1 ZM109 envelope-driven cell-cell fusion – HeLa effector, CEM target cells, luciferase, cherry-pick, dose response (AID 652058); format: functional, cell-based;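 also: luciferase signal from HIV-1 Env mediated cell-cell fusion of effector and target cells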
# Paired box protein Pax-8 = Paired box protein Pax-8 (Homo sapiens, UniProt Q06710); experiment: PAX8 transcriptional activity inhibition in RMG-I – RMG-I cells, luciferase, cherry-pick, dose response (AID 687027); format: functional, cell-based;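 also: luciferase reporter driven by Pax8 target thyroperoxidase promoter measured by SteadyGlo luminescence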
# Sequence of Paired box protein Pax-8 (Q06710 whole entry, the tested form may be a part): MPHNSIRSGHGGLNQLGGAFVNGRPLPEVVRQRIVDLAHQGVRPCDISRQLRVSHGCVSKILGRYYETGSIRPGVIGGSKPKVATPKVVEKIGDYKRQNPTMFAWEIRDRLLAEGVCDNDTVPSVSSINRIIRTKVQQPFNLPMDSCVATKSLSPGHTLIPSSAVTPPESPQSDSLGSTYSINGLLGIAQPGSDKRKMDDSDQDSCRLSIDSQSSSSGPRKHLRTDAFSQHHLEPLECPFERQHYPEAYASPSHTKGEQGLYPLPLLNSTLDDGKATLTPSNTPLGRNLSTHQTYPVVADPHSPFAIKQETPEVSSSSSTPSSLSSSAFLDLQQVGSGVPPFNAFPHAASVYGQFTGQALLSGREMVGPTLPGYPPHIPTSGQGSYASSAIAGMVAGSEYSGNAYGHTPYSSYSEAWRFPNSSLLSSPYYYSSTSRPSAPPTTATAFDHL
# [14] = off-target signal loss in HeLa-CEM21 co-culture – HeLa F-luc CTL cells, cherry-picked, counter-screen for HIV-1 Env fusion inhibitor project, dose response (AID 652040); format: functional, cell-based;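 also: potency for signal decrease marking cytotoxic or nonspecific inhibition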
# [15] = HIV-1 AD8 envelope cell-cell fusion blockers – cherry-pick, dose response (AID 652062); format: functional, cell-based;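 also: luciferase signal from cell-cell fusion driven by HIV-1 clade B AD8 Env; potency is for inhibitors of fusion seen as a drop in luminescence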
# [16] = A549 cell cytotoxicity, dose response, cytotoxicity control, plate reader, cherry-pick, antagonist series (AID 743412); format: functional, cell-based
# [17] = toxicity toward HepG2 liver cells – cell-based, plate reader, cherry-pick, antagonist series, cytotoxicity control, dose response (AID 743416); format: functional
# [18] = blockers of bursicon-stimulated LGR2 cAMP reporter – cell-based, HEK293, CRE-luciferase reporter, cherry pick, set 2, dose response (AID 743343); format: functional;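 also: transfected cells were stimulated with diluted bursicon conditioned medium after compound addition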
# [19] = general cell-killing toxicity readout – plate reader, dry powder samples, cytotoxicity control for PAX8 inhibitor project, dose response (AID 743021); format: functional, cell-based
# [20] = blockade of melanocortin 4 receptor signaling – cell-based, plate reader, cherry pick, counter-screen for LGR2 antagonist project, dose response (AID 743444); format: functional;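 also: transfected HEK 293 cells stimulated with alpha-MSH peptide; potency of inhibitors of the alpha-MSH evoked signal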
# [21] = viability loss in HEK293 cells – cell-based, plate reader, cherry-picked samples, cytotoxicity control, dose response (AID 743446); format: functional
# Aminopeptidase N = biological target: T4, Aminopeptidase N (Plasmodium falciparum FcB1/Columbia, UniProt O96935); experiment: malaria alanyl aminopeptidase activity blockers – biochemical, fluorogenic H-Leu-NHMec substrate, 1536-well (AID 1445); set-up: species or system Plasmodium falciparum 3D7, 3D7
# T4 sequence (O96935 whole entry): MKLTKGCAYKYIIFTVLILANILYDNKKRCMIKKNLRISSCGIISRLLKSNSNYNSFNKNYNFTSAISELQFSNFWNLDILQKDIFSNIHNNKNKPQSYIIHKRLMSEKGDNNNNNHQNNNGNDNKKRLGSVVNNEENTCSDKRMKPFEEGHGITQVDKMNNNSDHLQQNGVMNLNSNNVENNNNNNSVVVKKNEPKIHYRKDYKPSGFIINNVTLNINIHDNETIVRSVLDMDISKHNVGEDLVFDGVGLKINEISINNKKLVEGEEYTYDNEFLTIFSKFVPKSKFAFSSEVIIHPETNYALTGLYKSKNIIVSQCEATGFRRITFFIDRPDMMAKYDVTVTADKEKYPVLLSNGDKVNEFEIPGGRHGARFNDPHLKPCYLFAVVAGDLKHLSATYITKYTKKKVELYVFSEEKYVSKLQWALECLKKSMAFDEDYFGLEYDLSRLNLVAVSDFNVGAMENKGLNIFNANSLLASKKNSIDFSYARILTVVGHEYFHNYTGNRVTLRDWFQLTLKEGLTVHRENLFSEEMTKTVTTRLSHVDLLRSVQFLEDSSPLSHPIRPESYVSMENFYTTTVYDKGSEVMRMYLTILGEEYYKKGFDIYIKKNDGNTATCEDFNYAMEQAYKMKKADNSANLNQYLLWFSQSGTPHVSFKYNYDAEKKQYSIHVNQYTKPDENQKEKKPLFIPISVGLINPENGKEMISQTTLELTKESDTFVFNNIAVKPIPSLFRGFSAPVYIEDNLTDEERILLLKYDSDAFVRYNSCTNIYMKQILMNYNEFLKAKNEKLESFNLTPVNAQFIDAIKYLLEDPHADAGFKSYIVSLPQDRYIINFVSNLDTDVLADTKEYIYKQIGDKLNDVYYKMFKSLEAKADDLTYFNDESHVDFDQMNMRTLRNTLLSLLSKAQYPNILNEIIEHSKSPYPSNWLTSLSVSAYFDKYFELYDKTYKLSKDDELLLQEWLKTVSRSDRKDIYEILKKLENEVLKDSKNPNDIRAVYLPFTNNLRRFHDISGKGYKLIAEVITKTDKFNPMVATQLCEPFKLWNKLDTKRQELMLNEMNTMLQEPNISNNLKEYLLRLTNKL
# [22] = biological target: T5, Polyadenylate-binding protein 1 (Homo sapiens, UniProt P11940); experiment: MLLE binding blockers, Cy5 peptide tracer – biochemical, fluorescence polarization, Cy5-PAM2 peptide, secondary, miRNA deadenylation inhibitor project, dose response (AID 602260); format: functional; conditions: read-out: IC50_Mean
# T5 sequence (P11940 whole entry, the tested form may be a part): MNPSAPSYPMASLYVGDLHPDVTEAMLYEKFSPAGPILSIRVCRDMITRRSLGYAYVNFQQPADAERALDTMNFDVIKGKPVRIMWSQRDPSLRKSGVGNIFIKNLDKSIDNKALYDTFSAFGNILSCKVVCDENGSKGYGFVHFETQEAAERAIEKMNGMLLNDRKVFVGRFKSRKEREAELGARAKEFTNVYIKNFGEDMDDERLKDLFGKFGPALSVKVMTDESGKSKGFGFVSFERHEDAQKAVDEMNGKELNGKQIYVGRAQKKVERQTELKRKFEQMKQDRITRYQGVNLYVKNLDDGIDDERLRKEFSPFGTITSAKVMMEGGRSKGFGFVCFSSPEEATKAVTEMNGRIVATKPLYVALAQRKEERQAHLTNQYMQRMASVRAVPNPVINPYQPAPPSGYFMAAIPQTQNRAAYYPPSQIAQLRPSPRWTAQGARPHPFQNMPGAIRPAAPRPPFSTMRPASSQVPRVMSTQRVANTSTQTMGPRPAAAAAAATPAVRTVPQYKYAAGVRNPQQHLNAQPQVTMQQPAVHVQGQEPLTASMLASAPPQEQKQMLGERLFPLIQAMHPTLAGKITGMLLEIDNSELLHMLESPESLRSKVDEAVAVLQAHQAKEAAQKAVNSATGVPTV
# [23] = biological target: T5, Polyadenylate-binding protein 1; experiment: MLLE domain peptide-binding blockers, IC50 – biochemical, fluorescence polarization, FITC-PAM2 peptide, dose response (AID 602259); format: functional; conditions: read-out: IC50_Mean
# [24] = biological target: Endoplasmic reticulum aminopeptidase 1 (Homo sapiens, UniProt Q9NZ08); experiment: inhibition of human ERAP1 enzyme activity – biochemical, cherry-pick, set 2, plate reader, dose response (AID 743314)
# Sequence of Endoplasmic reticulum aminopeptidase 1 (Q9NZ08 whole entry): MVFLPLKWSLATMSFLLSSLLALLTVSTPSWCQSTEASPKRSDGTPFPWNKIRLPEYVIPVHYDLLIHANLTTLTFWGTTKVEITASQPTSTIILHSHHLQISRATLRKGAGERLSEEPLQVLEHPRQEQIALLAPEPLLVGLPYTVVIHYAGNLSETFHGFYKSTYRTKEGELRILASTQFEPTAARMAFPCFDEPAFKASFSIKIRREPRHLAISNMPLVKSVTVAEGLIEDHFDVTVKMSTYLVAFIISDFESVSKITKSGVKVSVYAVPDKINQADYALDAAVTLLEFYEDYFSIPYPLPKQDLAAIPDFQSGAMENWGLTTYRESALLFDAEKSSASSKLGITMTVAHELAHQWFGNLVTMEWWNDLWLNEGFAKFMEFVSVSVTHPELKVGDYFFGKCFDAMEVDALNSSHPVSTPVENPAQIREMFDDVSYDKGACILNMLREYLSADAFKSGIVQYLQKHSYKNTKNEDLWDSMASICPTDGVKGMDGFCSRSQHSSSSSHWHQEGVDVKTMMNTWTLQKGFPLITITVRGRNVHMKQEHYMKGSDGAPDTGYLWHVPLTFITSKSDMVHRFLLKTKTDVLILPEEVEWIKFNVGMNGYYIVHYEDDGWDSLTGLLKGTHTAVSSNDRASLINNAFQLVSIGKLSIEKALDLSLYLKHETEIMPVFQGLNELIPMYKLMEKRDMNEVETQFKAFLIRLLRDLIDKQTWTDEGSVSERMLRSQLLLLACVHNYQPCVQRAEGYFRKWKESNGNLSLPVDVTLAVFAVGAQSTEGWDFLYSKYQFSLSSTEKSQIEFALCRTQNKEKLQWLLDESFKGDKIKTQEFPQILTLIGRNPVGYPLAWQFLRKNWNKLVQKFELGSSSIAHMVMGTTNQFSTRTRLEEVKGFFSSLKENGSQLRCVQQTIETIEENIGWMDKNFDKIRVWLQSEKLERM
smiles,measurement,setting,value
CN(C)c1nc(OCCNC(=O)COc2ccc(Cl)cc2Cl)nc(N(C)C)n1,EC50,[1],> 195 µM (not active)
same,IC50,[2],> 109 µM (inactive)
same,IC50,[3],> 83.3 µM (inactive)
COc1ccc(C(=O)n2ncc(C#N)c2N)cc1,IC50,Prothrombin,15.1 µM (active)
Cc1ccccc1CS(=O)(=O)Cc1ccc(C(=O)NCc2ccccn2)o1,IC50,14-3-3 protein gamma,50 µM (not active)
Cn1cc(-c2nnc(-c3ccccc3)o2)c2ccccc21,AC50,Cytochrome P450 2C19,inconclusive
same,EC50,[4],> 67.5 µM (inactive)
same,AC50,Cytochrome P450 2D6,3.55 µM (inconclusive)
same,AC50,Cytochrome P450 2C9,inconclusive
same,EC50,cells,> 67.5 µM (inactive)
CCCCC1(C(=O)OCC)CC(CN2CCOCC2)OC1=O (stereo not drawn),IC50,14-3-3 protein gamma,> 50 µM (not active)
COc1ccc(C)cc1NC(=O)C(OC(=O)CNC(=O)c1cc(C)cc(C)c1)c1ccccc1 (stereo not drawn),EC50,[5],7.51 µM (not active)
Cc1nn(-c2nc3ccccc3[nH]2)c(=O)c2ccccc12,EC50,BJ [6],1.06 µM (active)
same,EC50,BJ [7],1.04 µM (active)
same,EC50,BJ [8],3.5 µM (active)
same,EC50,[9],1.01 µM (active)
same,AC50,[10],4.97 µM (active)
same,AC50,INS1,1.3 µM (active)
same,AC50,[11],0.534 µM (active)
same,AC50,[12],2.08 µM (active)
same,AC50,[13],5.84 µM (active)
same,AC50,Paired box protein Pax-8,1.54 µM (active)
same,AC50,[14],1.36 µM (active)
same,AC50,[15],1.46 µM (active)
same,AC50,[16],2.04 µM (active)
same,AC50,[17],14.8 µM (active)
same,AC50,[18],0.352 µM (active)
same,AC50,[19],1.72 µM (active)
same,AC50,[20],0.352 µM (active)
same,AC50,[21],2.33 µM (active)
same,IC50,[2],8.6 µM (active)
same,IC50,[3],2.41 µM (active)
c1ccc2c(-c3nnc4n3CCCCC4)cc(-c3ccncc3)nc2c1,IC50,Prothrombin,> 50 µM (not active)
CCN(CC)Cc1c(O)c(Cl)cc2c(C)cc(=O)oc12,IC50,Aminopeptidase N,48.6 µM (active)
same,IC50,[22],> 66 µM (inactive)
same,IC50,[23],39.1 µM (inactive)
same,AC50,[24],4.88 µM (active)
COc1ccc(N2C(S)=NC(=Nc3ccccc3)C23CCCCC3)cc1,IC50,Prothrombin,> 50 µM (not active)
COc1cc2nc(CN(C)Cc3ccc(F)cc3)nc(O)c2cc1OC,IC50,[2],> 109 µM (inactive)
same,IC50,[3],> 83.2 µM (inactive)
OCc1cccc(-c2cnc3c(Nc4cccc(OC(F)(F)C(F)F)c4)nccn23)c1,AC50,[16],43.3 µM (active)
same,AC50,[17],41.7 µM (active)
same,AC50,[18],23.8 µM (active)
same,AC50,[20],26.8 µM (active)
same,AC50,[21],> 52 µM (inactive)
CC(C)(C)c1ccc(Nc2[nH]nc3ccccc23)cc1,EC50,[4],> 67.6 µM (inactive)
same,EC50,cells,> 67.6 µM (inactive)
N#C[C@H]1[C@H](c2ccc(C#Cc3ccccc3F)cc2)[C@H](CO)N1C(=O)C1CC1,AC50,[16],23.9 µM (active)
same,AC50,[17],34.7 µM (active)
same,AC50,[18],16.4 µM (active)
same,AC50,[20],12.8 µM (active)
same,AC50,[21],15.4 µM (active)
CCCN(CCC)CCNc1c(NC2CCN(C(=O)OCC)CC2)c(=O)c1=O,EC50,[5],16.1 µM (not active)
